Assay results taken from patent US12247029B2, “Heterocyclic compounds as class II phosphoinositide 3-kinase inhibitors” (Forschungsverbund Berlin e.V., priority 2018, dated 2025).
pIC50: −log10 of the molar value.

Molecular target: PI3KC2α Δ1-298 (Homo sapiens (Human), UniProt O00443)
Assay: ADP-Glo kinase assay with purified PI3KC2α Δ1-298
Format: biochemical
Settings: not given
Description: Previous studies have shown that PI3KC2α can utilize phosphatidylinositol (PI) or phosphatidylinositol 4-phosphate [PI(4)P] to produce PI(3)P or PI(3,4)P2 respectively but with a preference for PI(3,4)P2 production. To verify that purified PI3KC2α Δ1-298 is active, a radioactive kinase assay was performed with PI as a substrate and different amounts of purified PI3KC2α Δ1-298. The lipid product [PI(3)P] was separated on TLC plates, and the PI(3)P signal was correlated with the amount of PI3KC2α used (FIG. 4A). […] After having confirmed the activity of purified PI3KC2α Δ1-298, an assay suitable for high content screens in multiwell format (ADP-Glo™ assay) was established. The ADP-Glo™ assay has been used for universal detection of ATP hydrolysis. This assay measures ATP hydrolysis occurring during a kinase reaction. For detection, generated ADP is re-converted into ATP with the […] and converted into light by the Ultra-Glo™ Luciferase reagent. The luminescent signal reports kinase activity (FIG. 4B).
The ADP-Glo™ assay was first used to determine the linear correlation range of signal with different amounts of kinase, and then to assess the Kms for ATP and for PI. […] Further optimization of this assay allowed us to carry out medium-to-high throughput screening using low amounts of purified enzyme (at fixed concentrations of: ATP=40 μM, PI=200 μM, PI3KC2α A1−298=10 ng/μl).
Primary screens were performed using the ADP-Glo™ assay in a 384-well format. 37, 224 small molecules were screened for their ability to inhibit kinase activity of PI3KC2α Δ1-298. The concentration of each compound used in the primary screens was 10 μM. Kinase incubations with ATP but without PI were used as negative control samples. This primary screen turned out to be robust with an average z′ factor of 0.57, and therefore judged as successful.
ADP-Glo kinase assay was performed as described by the manufacturer's protocol. Briefly, the kinase assay was performed with a […] of liver PI/ATP/purified PI3KC2α for 20 min in kinase reaction buffer described above. To deplete the remaining ATP from the reaction, 5 μl of […] was added to the kinase reaction mixture and incubated for 40 min. For detection, the generated ADP is re-converted into ATP and converted into light by the Ultra-Glo™ luciferase in kinase detection reagent. The luminescent signal positively correlates with kinase activity. All reactions are performed in Corning® 384 well-white plates.

Sequence of PI3KC2α Δ1-298 (O00443 299-1686): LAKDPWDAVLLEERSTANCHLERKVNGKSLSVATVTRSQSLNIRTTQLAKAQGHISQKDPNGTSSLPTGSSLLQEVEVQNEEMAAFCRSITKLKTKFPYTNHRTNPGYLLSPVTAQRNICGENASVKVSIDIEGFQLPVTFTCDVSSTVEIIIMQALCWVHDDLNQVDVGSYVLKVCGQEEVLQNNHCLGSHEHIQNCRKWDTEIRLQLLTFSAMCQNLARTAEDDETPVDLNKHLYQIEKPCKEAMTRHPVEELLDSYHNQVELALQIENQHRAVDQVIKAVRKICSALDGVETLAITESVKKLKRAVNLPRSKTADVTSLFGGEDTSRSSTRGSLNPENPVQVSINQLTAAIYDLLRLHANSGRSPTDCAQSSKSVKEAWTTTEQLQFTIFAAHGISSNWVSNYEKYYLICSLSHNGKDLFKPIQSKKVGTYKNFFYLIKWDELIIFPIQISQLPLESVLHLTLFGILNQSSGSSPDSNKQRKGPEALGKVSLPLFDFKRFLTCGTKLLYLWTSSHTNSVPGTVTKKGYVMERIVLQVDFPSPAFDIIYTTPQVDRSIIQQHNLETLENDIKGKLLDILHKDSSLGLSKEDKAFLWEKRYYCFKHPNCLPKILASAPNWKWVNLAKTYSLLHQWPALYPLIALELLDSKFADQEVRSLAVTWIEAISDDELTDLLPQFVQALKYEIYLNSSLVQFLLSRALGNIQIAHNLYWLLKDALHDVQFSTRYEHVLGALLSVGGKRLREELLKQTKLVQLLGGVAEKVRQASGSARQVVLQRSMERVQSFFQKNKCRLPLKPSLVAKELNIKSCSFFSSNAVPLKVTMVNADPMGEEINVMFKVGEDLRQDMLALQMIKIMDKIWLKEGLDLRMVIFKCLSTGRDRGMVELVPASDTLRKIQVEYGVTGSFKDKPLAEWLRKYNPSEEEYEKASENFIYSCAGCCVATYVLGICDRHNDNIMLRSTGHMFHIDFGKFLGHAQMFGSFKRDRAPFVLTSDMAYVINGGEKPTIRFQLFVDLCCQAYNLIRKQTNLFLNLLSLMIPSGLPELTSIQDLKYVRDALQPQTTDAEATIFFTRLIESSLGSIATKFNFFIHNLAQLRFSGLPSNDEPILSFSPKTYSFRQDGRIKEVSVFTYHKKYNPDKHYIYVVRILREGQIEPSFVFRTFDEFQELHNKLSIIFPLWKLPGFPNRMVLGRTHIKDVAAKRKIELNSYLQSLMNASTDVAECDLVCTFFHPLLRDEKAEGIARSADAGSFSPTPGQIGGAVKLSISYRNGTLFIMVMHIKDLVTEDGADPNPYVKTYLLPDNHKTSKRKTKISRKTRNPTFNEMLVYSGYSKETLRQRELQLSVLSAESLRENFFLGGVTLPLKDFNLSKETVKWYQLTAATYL

SMILES | PI3KC2α inhibitory activity (in words, SAR) | inhibition at 10 µM [%]
O=C(CSc1nc2nccnc2c(=O)n1CCc1ccccc1)Nc1nc(-c2ccccc2)cs1 [Example Compound 10, 2-((4-Oxo-3-phenethyl-3,4-dihydropteridin-2-yl)thio)-N-(4-phenylthiazol-2-yl)acetamide] | functional compounds | –
O=C(CCc1nc2nccnc2c(=O)n1CCc1ccccc1)NCc1ccccc1 [Example Compound 101, N-Benzyl-3-(4-oxo-3-phenethyl-3,4-dihydropteridin-2-yl)propanamide] | – | 28
CC(C)NC(=O)CSc1nc2nccnc2c(=O)n1CCc1ccccc1 [Example Compound 61, N-Isopropyl-2-((4-oxo-3-phenethyl-3,4-dihydropteridin-2-yl)thio)acetamide] | – | 30
O=C(CCc1nc2nccnc2c(=O)n1CCc1ccccc1)Nc1ccccc1 [Example Compound 100, 3-(4-Oxo-3-phenethyl-3,4-dihydropteridin-2-yl)-N-phenylpropanamide] | – | 31
O=C(CSc1nc2nccnc2c(=O)n1CCc1cccc(F)c1)Nc1nc(-c2ccc(F)cc2)cs1 [Example Compound 6, 2-((3-(3-Fluorophenethyl)-4-oxo-3,4-dihydropteridin-2-yl)thio)-N-(4-(4-fluorophenyl)thiazol-2-yl)acetamide] | functional compounds | –

Same assay, conditions: read-out: IC50 (PI3KC2α; ADP-Glo™ assay)

SMILES | pIC50
O=C(CSc1nc2nccnc2c(=O)n1Cc1ccccc1)Nc1nccs1 [Example Compound 42, 2-((3-Benzyl-4-oxo-3,4-dihydropteridin-2-yl)thio)-N-(thiazol-2-yl)acetamide] | > 4.30
O=C(CSc1nc2nccnc2c(=O)n1Cc1ccco1)Nc1nccs1 [Example Compound 32, 2-((3-(Furan-2-ylmethyl)-4-oxo-3,4-dihydropteridin-2-yl)thio)-N-(thiazol-2-yl)acetamide] | 5.74
O=C(CSc1nc2nccnc2c(=O)n1CCc1ccccc1)Nc1nc(-c2ccccc2)cs1 [Example Compound 10, 2-((4-Oxo-3-phenethyl-3,4-dihydropteridin-2-yl)thio)-N-(4-phenylthiazol-2-yl)acetamide] | 5.90
O=C(CSc1nc2nccnc2c(=O)n1CCc1ccccc1)Nc1nc2c(F)cc(F)cc2s1 [Example Compound 57, N-(4,6-Difluorobenzo[d]thiazol-2-yl)-2-((4-oxo-3-phenethyl-3,4-dihydropteridin-2-yl)thio)acetamide] | 5.47
O=c1[nH]c(CSc2nc3nccnc3c(=O)n2CCc2ccccc2)nc2ccccc12 [Example Compound 67, 2-(((4-Oxo-3,4-dihydroquinazolin-2-yl)methyl)thio)-3-phenethylpteridin-4(3H)-one] | 5.72
O=c1c2nccnc2nc(SCc2nc3cc(Br)ccc3[nH]2)n1CCc1ccccc1 [Example Compound 72, 2-(((5-Bromo-1H-benzo[d]imidazol-2-yl)methyl)thio)-3-phenethylpteridin-4(3H)-one] | 4.29
CC(C)(C)OC(=O)N1CCC(n2c(SCC(=O)Nc3nccs3)nc3nccnc3c2=O)CC1 [Example Compound 93, tert-Butyl 4-(4-oxo-2-((2-oxo-2-(thiazol-2-ylamino)ethyl)thio)pteridin-3(4H)-yl)piperidine-1-carboxylate] | 5.44
O=c1c2nccnc2nc(SCc2nc3ccccc3[nH]2)n1C1Cc2ccccc2C1 [Example Compound 88, 2-(((1H-Benzo[d]imidazol-2-yl)methyl)thio)-3-(2,3-dihydro-1H-inden-2-yl)pteridin-4(3H)-one] | 6.89
Cc1ccnc2[nH]c(CSc3nc4nccnc4c(=O)n3CCc3ccccc3)nc12 [Example Compound 70, 2-(((7-Methyl-3H-imidazo[4,5-b]pyridin-2-yl)methyl)thio)-3-phenethylpteridin-4(3H)-one] | 4.38
O=c1c2nccnc2nc(SCc2nc3cccnc3[nH]2)n1CCc1ccccc1 [Example Compound 73, 2-(((3H-Imidazo[4,5-b]pyridin-2-yl)methyl)thio)-3-phenethylpteridin-4(3H)-one] | 6.21
CC(C)(C)OC(=O)N1CCC(n2c(SCc3nc4ccccc4[nH]3)nc3nccnc3c2=O)CC1 [Example Compound 94, tert-Butyl 4-(2-(((1H-benzo[d]imidazol-2-yl)methyl)thio)4-oxopteridin-3(4H)-yl)piperidine-1-carboxylate] | 5.92
CS(=O)(=O)N(c1cccc(-c2csc(NC(=O)CSc3nc4nccnc4c(=O)n3CCc3ccccc3)n2)c1)S(C)(=O)=O [Example Compound 55, N-(4-(3-(N-(Methylsulfonyl)methylsulfonamido)phenyl)thiazol-2-yl)-2-((4-oxo-3-phenethyl-3,4-dihydropteridin-2-yl)thio)acetamide] | 6.70
COC(=O)[C@H]1C[C@H](n2c(SCC(=O)Nc3nccs3)nc3nccnc3c2=O)C1 [Example Compound 91, trans-Methyl 3-(4-oxo-2-((2-oxo-2-(thiazol-2-ylamino)ethyl)thio)pteridin-3(4H)-yl)cyclobutane-1-carboxylate] | 6.43
CS(=O)(=O)c1ccc(-n2c(SCc3nc4ccccc4[nH]3)nc3nccnc3c2=O)cc1 [Example Compound 79, 2-(((1H-Benzo[d]imidazol-2-yl)methyl)thio)-3-(4-(methylsulfonyl)phenyl)pteridin-4(3H)-one] | 6.04
O=C(CSc1nc2nccnc2c(=O)n1CCc1ccccc1)Nc1nc(-c2cccc(O)c2)cs1 [Example Compound 1, N-(4-(3-Hydroxyphenyl)thiazol-2-yl)-2-((4-oxo-3-phenethyl-3,4-dihydropteridin-2-yl)thio)acetamide] | 6.92
C[C@@H](c1ccccc1)n1c(SCC(=O)Nc2nccs2)nc2nccnc2c1=O [Example Compound 89, (S)-2-((4-Oxo-3-(1-phenylethyl)-3,4-dihydropteridin-2-yl)-thio)-N-(thiazol-2-yl) acetamide] | 5.77
O=C(CSc1nc2nccnc2c(=O)n1-c1ccccc1)Nc1nccs1 [Example Compound 40, 2-((4-Oxo-3-phenyl-3,4-dihydropteridin-2-yl)thio)-N-(thiazol-2-yl)acetamide] | 5.18
Cc1nnc(NC(=O)CSc2nc3nccnc3c(=O)n2CCc2cccc(F)c2)s1 [Example Compound 5, 2-((3-(3-Fluorophenethyl)-4-oxo-3,4-dihydropteridin-2-yl)thio)-N-(5-methyl-1,3,4-thiadiazol-2-yl)acetamide] | 5.20
O=c1c2nccnc2nc(SCc2nc3ccccc3s2)n1CCc1ccccc1 [Example Compound 62, 2-((Benzo[d]thiazol-2-ylmethyl)thio)-3-phenethylpteridin-4(3H)-one] | 5.40
O=c1c2nccnc2nc(SCc2nc3ccccc3o2)n1CCc1ccccc1 [Example Compound 63, 2-((Benzo[d]oxazol-2-ylmethyl)thio)-3-phenethylpteridin-4(3H)-one] | 5.24
O=c1c2nccnc2nc(SCc2nc3cc(Cl)ccc3[nH]2)n1CCc1ccccc1 [Example Compound 69, 2-(((5-Chloro-1H-benzo[d]imidazol-2-yl)methyl)thio)-3-phenethylpteridin-4(3H)-one] | 4.57
O=C(CSc1nc2nccnc2c(=O)n1CCc1cccc(F)c1)Nc1nccs1 [Example Compound 4, 2-((3-(3-Fluorophenethyl)-4-oxo-3,4-dihydropteridin-2-yl)thio)-N-(thiazol-2-yl)acetamide] | 6.08
Cc1nc(CSc2nc3nccnc3c(=O)n2CCc2ccccc2)[nH]c1C [Example Compound 77, 2-(((4,5-Dimethyl-1H-imidazol-2-yl)methyl)thio)-3-phenethylpteridin-4(3H)-one] | 4.64
O=C(CSc1nc2nccnc2c(=O)n1CCc1cccc(F)c1)Nc1nc(-c2ccc(F)cc2)cs1 [Example Compound 6, 2-((3-(3-Fluorophenethyl)-4-oxo-3,4-dihydropteridin-2-yl)thio)-N-(4-(4-fluorophenyl)thiazol-2-yl)acetamide] | 6.21
N#Cc1ccc(NC(=O)CSc2nc3nccnc3c(=O)n2CCc2ccccc2)nc1 [Example Compound 28, N-(5-Cyanopyridin-2-yl)-2-((4-oxo-3-phenethyl-3,4-dihydropteridin-2-yl)thio)acetamide] | 5.12
COC(=O)[C@H]1C[C@H](n2c(SCc3nc4ccccc4[nH]3)nc3nccnc3c2=O)C1 [Example Compound 92, trans-Methyl-3-(2-(((1H-benzo[d]imidazol-2-yl)methyl)thio)-4-oxo-pteridin-3(4H)-yl)cyclobutane-1-carboxylate] | 6.49
O=C(CSc1nc2nccnc2c(=O)n1CCc1ccccc1)Nc1ccccc1F [Example Compound 15, N-(2-Fluorophenyl)-2-((4-oxo-3-phenethyl-3,4-dihydropteridin-2-yl)thio)acetamide] | 5.22
O=C(CSc1nc2nccnc2c(=O)n1CCc1cccc(C(F)(F)F)c1)Nc1nccs1 [Example Compound 9, 2-((4-Oxo-3-(3-(trifluoromethyl)phenethyl)-3,4-dihydropteridin-2-yl)thio)-N-(thiazol-2-yl)acetamide] | 5.82
